Source: patent publication US12502400B2, “Method of preventing of systemic-to-pulmonary-artery shunt thrombosis” (Chiesi Farmaceutici S.p.A., priority 2017, dated 2025)
Like-named read-outs stand apart in the source and are kept apart here. One block for each compound: values may come before it.

How the values were obtained:
[1] = early institution within 12 hours of surgery; cited from earlier work
[2] = cited from earlier work
[3] = adults with coronary artery disease, cited from earlier work
[4] = system: platelets in PPACK-treated whole blood; experiment: Multichannel microfluidic device, platelet accumulation on collagen under flow; type: cell-based; conditions: Homo sapiens, read-out: effective IC50 (surface fluorescence at 300 s)
Description: Microfluidic devices with 8 individual channels (250 μm wide×60 μm-high) were fabricated in polydimethylsiloxane (PDMS) as previously described. The device was reversibly vacuum-sealed to a glass slide with its flow channels aligned perpendicularly to a patterned type 1 collagen surface (1 mg/ml). To visualize platelet accumulation over time, an Alexa Fluor 488 conjugated, non-function blocking mouse anti-human CD61 (GPIIb/IIIa) antibody was added (1:50 ratio) 7 min prior to performing experiments (0.125 μg/ml final concentration).
Whole blood from neonates with single ventricle pathology or healthy adults was perfused over the prothrombotic surface at an initial wall shear rate of 100 s^−1 by withdrawal from a single outlet into a syringe pump (Harvard Apparatus Pump 11 Elite, Holliston, MA). Platelet accumulation was visualized (10× objective lens) using an automated inverted microscope system (DMI6000, Leica) equipped with a CCD camera (DFC365FX, Leica). A custom stage insert held three microfluidic devices allowing replicate testing of four conditions. Images were captured in 30 s intervals for a total of 5 min. Platelet fluorescence intensities, which are directly proportional to the total platelet mass were measured and analyzed with Image J software (Image J; NIH, Bethesda, MD). The center 65% of the prothrombotic region was selected for analysis to avoid edge effects. […]

[5] = system: human platelet thrombus formation; experiment: Human platelet thrombus formation in laser-injured arterioles of avatar mice; type: in vivo, VWFHA1 mutant mice; conditions: for Contrast estimate (mean difference in thrombus size pre- and post-administration): linear mixed model; for platelet accumulation at sites of arteriole injury: platelets from neonates and older pediatric CHD patients
Description: Administration of anesthesia, insertion of venous and arterial catheters, fluorescent labeling of human platelets, and surgical preparation of the cremaster muscle in 12 week old male VWF HA1 mice have been previously described.
Human platelets (700K/μL) were continuously infused (25 μl/min) through a catheter placed in the ipsilateral femoral artery 2 min prior to and during laser-induced injury to ensure a level of circulating cells equivalent to humans.^33 Injury to the vessel wall of arterioles (40-65 μm diameter) was performed with a pulsed nitrogen dye laser applied through a 20× water-immersion Olympus objective. Human platelet-vessel wall interactions were visualized by fluorescence microscopy using a system equipped with a Yokogawa CSU-22 spinning disk confocal scanner, iXON EM camera, and 488-nm laser line (Revolution XD, Andor Technology, South Windsor, CT) to detect Calcein-AM-labeled cells, respectively. The extent of thrombus formation was assessed for 3 min after injury and the maximal area (μm^2) of coverage determined by off-line analysis (ImagePro Plus, Media Cybernetics, Bethesda, MD).
A minimum of 5 mice per patient group were studied (2 and 4 arterial segments pre and post-cangrelor per mouse, respectively).
To compare mean thrombus areas between different treatment groups, we fit linear mixed models with random intercepts for each study animal. Linear mixed models permit comparison of mean differences between treatment groups while also considering the effect of the clustering of the data on the SEs resulting from multiple measurements obtained from each mouse used in intravital studies. In the case of platelet aggregation studies, values are presented as mean±SEM. A 2-tailed Student t test was used for comparisons between control conditions and treatments. Differences with values of P<0.05 were considered statistically significant.

[6] = system: platelet aggregation; experiment: Phase 1 PK/PD clinical trial in post-operative neonates with CHD, LTA and microfluidics; type: in vivo, human; conditions: infusion 0.5 or 0.25 μg/kg/min for one hour; post-operative neonates with shunt
Excerpt: FIG. 7. Pharmacodynamic properties of cangrelor administered to neonates with CHD in the early post-operative period. A phase 1 clinical trial is currently being conducted to assess the drug plasma levels and effects on platelet aggregation using LTA and microfluidics. […] B, microfluidic results under the same conditions as outlined for LTA.

[7] = system: purified platelets; experiment: ADP-induced platelet aggregation by light transmission aggregometry (LTA), EC50 for ADP; type: cell-based, human; conditions: LTA with fibrinogen
Description: Purified platelets were suspended to a final concentration of 400,000/μl in platelet buffer containing 145 mM NaCl, 10 mM Hepes, 0.5 mM Na2HPO4, 5 mM KCl, 2 mM MgCl2, 1 mM CaCl2), 0.10% glucose, pH 7.4. […] Human fibrinogen (final concentration 200 μg/ml) was added to the platelet suspensions just prior to activation. Aggregation was assessed using a Chronolog Lumi-Aggregometer (model 540 VS, Chronolog, Havertown, PA) and permitted to proceed for 6 min after the addition of agonist. The results are reported as maximum percent change in light transmittance from baseline with platelet buffer used as a reference.
We next determine the functional response of platelets from neonates as well as older patients with congenital heart disease to ADP stimulation. This was accomplished by calculating EC50 values for the agonist using isolated platelets in fibrinogen-supplemented buffer.

[8] = target: T1, integrin αIIbβ3 (Homo sapiens, UniProt P05106+P08514); experiment: ADP-induced firm adhesion of platelets to surface-immobilized VWF in flow; type: cell-based; conditions: platelets from pediatric CHD patients or healthy adults
T1 construct: the platelet integrin receptor αIIbβ3 that stabilizes adhesion by engaging with ligands such as VWF; endogenous in cells; host or cells: platelets from pediatric patients with CHD or healthy adults
Description: A parallel-plate flow chamber was used to assess platelet accumulation on surface-immobilized plasma VWF at a wall shear rate of 1,600s-1.29, 31 In brief, a polyclonal anti-VWF antibody was absorbed overnight (4° C.) to a six-well tissue culture plate. Subsequently, the plate was washed and nonspecific interactions blocked by the addition of TBS containing 3% BSA, pH 7.4 (30 min, 37° C.). Human or murine (VWF^HA1) plasma obtained from heparinized whole blood was added and the plates placed at 37° C. for an additional hour prior to use. Citrated whole blood was then perfused over the reactive substrate for 3 minutes, followed by the addition of platelet buffer lacking CaCl2 for 1 min. The number of platelets attached per unit area was determined by offline analysis (ImagePro Plus, Media Cybernetics, Bethesda, MD) of recorded digital images. For GPIbα inhibition studies, mAb 6D1 (10 μg/ml) was added to anticoagulated human blood for 10 min before use.
Although GPIbα initiates platelet deposition at arterial shear rates, this adhesive interaction is labile in nature permitting platelets to translocate in response to forces generated by flowing blood. Ultimately it is the platelet integrin receptor αIIbβ3 that stabilizes adhesion by engaging with ligands such as VWF in response to ADP and/or thrombin.

Compound: CC(=O)Oc1ccccc1C(=O)O [aspirin]
risk of shunt thrombosis and death [1]: reduced the risk of shunt thrombosis and death

IC50 ([4]; whole blood from neonates with CHD (single ventricle physiology)): 0.69 nM
Compound: CSCCNc1nc(SCCC(F)(F)F)nc2c1ncn2[C@@H]1O[C@H](COP(=O)(O)OP(=O)(O)C(Cl)(Cl)P(=O)(O)O)[C@@H](O)[C@H]1O [cangrelor]
restoration of hemostasis, as assessed by bleeding time ([2]; after cessation of infusion of a supratherapeutic dose): ≤ 10 min | full platelet function recovery as determined by response to ADP ([2]; after cessation of infusion): ≤ 60 min | risk of severe bleeding ([3]; PCI): without significantly increasing the risk of severe bleeding | ischemic events during PCI [3]: significantly reduce ischemic events | IC50 ([4]; whole blood from healthy adults): 0.95 nM | Contrast estimate (mean difference in thrombus size pre- and post-administration) ([5]; platelets from adults): 3,501 μm2 | Contrast estimate (mean difference in thrombus size pre- and post-administration) ([5]; platelets from age group 0-28 days): 2,261 μm2 | Contrast estimate (mean difference in thrombus size pre- and post-administration) ([5]; platelets from age group 1-10 years): 3,314 μm2 | Contrast estimate (mean difference in thrombus size pre- and post-administration) ([5]; platelets from age group 11-18 years): 3,475 μm2 | reduced thrombus size ([5]; platelets from neonates and older CHD patients, all cases, doses recommended for PCI, P<0.0001): > 45% | platelet accumulation at sites of arteriole injury [5]: did not completely prevent platelet accumulation | reduction in thrombus size ([5]; platelets from pediatric cardiac patients, 30 μg/kg bolus then 4 μg/kg/min infusion, P<0.0001): ~45% | effect on platelet aggregation assessed by LTA and microfluidics [6]: efficacy and rapid reversibility

EC50 ([7]; platelets from CHD patients 0-28 days): 3.4 ± 0.1 µM | EC50 ([7]; platelets from CHD patients 1-10 years): 2.9 ± 0.1 µM | EC50 ([7]; platelets from CHD patients 11-18 years): 3.2 ± 0.2 µM
Compound: Nc1ncnc2c1ncn2[C@@H]1O[C@H](COP(=O)(O)OP(=O)(O)O)[C@@H](O)[C@H]1O [ADP]
EC50 ([7]; platelets from healthy adults): 3.2 ± 0.2 µM

firm adhesion of platelets to surface-immobilized VWF in response to ADP [8]: prevent the firm adhesion
Compound: abciximab: function blocking antibody to integrin αIIbβ3
platelet accumulation at sites of arteriole injury [5]: nearly abrogated platelet-vessel wall interactions | abrogated platelet accumulation ([5]; platelets from pediatric cardiac patients, laser-injured arterioles, P<0.0001): > 90%
